Earlier results in patent publication US12350279B2, “Nasal rinse compositions and methods” (Campbell Holding Company LLC, priority 2022, dated 2025).

Key:
[1] = test system: allergic asthma animal model
[2] = test system: animal models of chronic asthma
[3] = animal models

## C=C(C)[C@@H]1CCC(C)=C[C@H]1c1c(O)cc(CCCCC)cc1O [CBD, Cannabidiol]
[1]
  effect on inflammatory and remodeling process, airway hyperreactivity: reduced the inflammatory and remodeling process with decreased airway hyperreactivity
[2]
  effect on cytokines: reduce relevant cytokines
[3]
  time to absorption after intranasal application: ≤ 10 min
